Assay results as given in US12264156B2, “Compounds and pharmaceutical compositions thereof for the treatment of diseases” (GALAPAGOS NV, priority 2018, dated 2025).

How the values were obtained:
Format in all cases: biochemical
Conditions in all cases: ADP-Glo SIK kinase assay
[1] = target: T1, SIK1 (Homo sapiens, UniProt P57059); experiment: ADP-Glo kinase assay, SIK1
T1 construct: purchased Carna Biosciences 02-131
In short: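 ADP-Glo, RT throughout. Enz/substrate + ATP, 120 min; ADP-Glo reagent 40 min (ATP depletion); detection reagent 30 min; luminescence read. Neg ctrl 1% DMSO, pos ctrl 10 μM staurosporine, final concs.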

[2] = target: T2, SIK2 (Homo sapiens, UniProt Q9H0K1); experiment: ADP-Glo kinase assay, SIK2
T2 construct: purchased ThermoFisher Scientific PV4792
In short: (§1)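 ADP-Glo luminescent assay of ADP formed by SIK2 or SIK3 with substrate after ATP addition, 120 min at RT. Remaining ATP depleted 40 min, then ADP converted to ATP and read by luciferase luminescence after 30 min. Controls: 1% DMSO and 10 μM staurosporine (final).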

[3] = target: T3, SIK3 (Homo sapiens, UniProt Q9Y2K2); experiment: ADP-Glo kinase assay, SIK3
T3 construct: purchased SignalChem S12-11G-100
In short: as §1

T1 sequence (P57059 whole entry): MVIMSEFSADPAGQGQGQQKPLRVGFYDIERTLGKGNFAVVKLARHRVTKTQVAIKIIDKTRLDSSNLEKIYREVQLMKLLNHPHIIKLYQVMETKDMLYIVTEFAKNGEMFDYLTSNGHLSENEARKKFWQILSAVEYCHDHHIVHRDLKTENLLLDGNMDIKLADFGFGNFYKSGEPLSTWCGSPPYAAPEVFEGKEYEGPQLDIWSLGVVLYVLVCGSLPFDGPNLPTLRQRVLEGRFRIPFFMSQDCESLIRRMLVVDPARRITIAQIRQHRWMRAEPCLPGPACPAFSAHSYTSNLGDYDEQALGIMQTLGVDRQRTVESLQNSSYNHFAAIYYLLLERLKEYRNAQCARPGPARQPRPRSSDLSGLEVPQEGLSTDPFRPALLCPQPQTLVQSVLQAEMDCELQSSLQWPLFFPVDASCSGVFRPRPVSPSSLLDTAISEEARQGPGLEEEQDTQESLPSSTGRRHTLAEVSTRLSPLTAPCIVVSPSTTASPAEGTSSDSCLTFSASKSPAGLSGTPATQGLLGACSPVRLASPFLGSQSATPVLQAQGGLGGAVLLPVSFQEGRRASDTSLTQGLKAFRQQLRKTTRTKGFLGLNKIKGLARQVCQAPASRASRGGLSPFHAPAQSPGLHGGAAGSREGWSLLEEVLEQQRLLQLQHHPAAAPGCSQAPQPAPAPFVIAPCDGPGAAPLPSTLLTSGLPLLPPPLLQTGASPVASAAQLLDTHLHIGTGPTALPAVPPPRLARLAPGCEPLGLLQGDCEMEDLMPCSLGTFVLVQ
T3 sequence (Q9Y2K2 whole entry): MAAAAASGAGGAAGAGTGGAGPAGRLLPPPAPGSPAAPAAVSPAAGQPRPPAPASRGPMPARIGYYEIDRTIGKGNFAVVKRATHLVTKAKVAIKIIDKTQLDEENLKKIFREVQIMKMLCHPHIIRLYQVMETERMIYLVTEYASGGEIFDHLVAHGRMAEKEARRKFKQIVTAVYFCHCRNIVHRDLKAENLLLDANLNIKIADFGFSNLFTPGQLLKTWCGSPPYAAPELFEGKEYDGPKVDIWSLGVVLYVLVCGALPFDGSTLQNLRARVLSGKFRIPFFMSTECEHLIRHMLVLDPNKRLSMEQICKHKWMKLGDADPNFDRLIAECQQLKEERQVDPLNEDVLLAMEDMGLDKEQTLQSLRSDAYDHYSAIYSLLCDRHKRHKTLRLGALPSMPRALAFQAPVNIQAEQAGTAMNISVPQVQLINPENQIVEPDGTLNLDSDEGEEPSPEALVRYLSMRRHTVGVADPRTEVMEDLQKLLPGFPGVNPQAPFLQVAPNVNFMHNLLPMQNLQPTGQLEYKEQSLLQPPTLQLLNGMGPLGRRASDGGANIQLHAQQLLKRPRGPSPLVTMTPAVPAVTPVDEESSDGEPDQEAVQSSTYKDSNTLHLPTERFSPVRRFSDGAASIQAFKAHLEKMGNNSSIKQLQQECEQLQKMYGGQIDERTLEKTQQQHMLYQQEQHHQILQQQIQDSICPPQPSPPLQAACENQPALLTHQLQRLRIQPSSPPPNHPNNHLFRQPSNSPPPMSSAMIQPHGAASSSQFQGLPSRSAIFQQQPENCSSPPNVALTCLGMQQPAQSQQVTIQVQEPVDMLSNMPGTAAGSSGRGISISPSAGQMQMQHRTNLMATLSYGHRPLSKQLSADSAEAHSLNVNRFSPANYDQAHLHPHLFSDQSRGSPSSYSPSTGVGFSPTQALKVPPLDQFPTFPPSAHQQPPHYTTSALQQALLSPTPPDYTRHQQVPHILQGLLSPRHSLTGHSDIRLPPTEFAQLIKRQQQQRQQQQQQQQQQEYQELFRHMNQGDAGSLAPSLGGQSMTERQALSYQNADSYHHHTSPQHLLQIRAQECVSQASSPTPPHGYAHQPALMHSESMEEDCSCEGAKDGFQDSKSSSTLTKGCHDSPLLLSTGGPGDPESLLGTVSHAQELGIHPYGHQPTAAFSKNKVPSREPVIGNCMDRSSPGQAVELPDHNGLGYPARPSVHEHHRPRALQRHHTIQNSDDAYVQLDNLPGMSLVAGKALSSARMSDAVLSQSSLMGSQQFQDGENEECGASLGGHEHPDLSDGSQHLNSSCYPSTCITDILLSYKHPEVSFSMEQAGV
T2 sequence (Q9H0K1 whole entry): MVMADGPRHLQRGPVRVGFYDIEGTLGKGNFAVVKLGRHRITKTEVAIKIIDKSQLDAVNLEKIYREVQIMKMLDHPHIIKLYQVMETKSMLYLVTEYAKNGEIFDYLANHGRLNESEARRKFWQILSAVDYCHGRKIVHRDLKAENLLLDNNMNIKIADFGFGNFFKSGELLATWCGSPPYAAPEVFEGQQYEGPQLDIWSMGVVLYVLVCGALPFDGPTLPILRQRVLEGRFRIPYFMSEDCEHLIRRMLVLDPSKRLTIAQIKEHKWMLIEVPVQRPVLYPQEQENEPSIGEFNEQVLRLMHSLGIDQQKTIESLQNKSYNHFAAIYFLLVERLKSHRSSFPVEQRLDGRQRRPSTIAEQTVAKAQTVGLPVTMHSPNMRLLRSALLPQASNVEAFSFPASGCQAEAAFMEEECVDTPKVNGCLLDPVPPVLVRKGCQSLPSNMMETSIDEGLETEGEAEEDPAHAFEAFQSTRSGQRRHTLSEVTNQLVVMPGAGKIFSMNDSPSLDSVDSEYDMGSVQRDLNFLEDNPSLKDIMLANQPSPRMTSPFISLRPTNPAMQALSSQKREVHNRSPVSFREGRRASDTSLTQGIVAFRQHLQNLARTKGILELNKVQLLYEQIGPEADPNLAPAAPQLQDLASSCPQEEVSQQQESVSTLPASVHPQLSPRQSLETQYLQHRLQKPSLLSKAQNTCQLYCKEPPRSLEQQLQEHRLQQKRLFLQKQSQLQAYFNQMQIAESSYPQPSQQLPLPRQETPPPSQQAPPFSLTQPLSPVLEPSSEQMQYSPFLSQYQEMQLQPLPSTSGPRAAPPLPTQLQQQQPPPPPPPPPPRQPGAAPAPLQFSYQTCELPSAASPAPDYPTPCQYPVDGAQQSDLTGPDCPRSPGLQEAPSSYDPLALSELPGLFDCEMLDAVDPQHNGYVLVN

Row | SMILES | IC50 [1] [nM] | IC50 [2] [nM] | IC50 [3] [nM]
1 | COc1cc(-c2cnc3cc(OCCN4CCCC(F)C4)ccn23)cc(OC(F)F)c1C(=O)NC1CC1 (stereo not drawn) [compound 212, N-cyclopropyl-2-(difluoromethoxy)-4-[7-[2-(3-fluoro-1-piperidyl)ethoxy]imidazo[1,2-a]pyridin-3-yl]-6-methoxy-benzamide] | 10 to 100 | 0.01 to 10 | 0.01 to 10
2 | COc1cc(-c2cnc3cc(OCCN4CCOC(C#N)C4)ccn23)cc(OC(F)F)c1C(=O)NC1CC1 (stereo not drawn) [compound 213, 4-[7-[2-(2-cyanomorpholin-4-yl)ethoxy]imidazo[1,2-a]pyridin-3-yl]-N-cyclopropyl-2-(difluoromethoxy)-6-methoxy-benzamide] | 10 to 100 | 0.01 to 10 | 0.01 to 10
3 | COc1cc(-c2cnc3cc(OCCN4CCOC(C)C4)ccn23)cc(OC(F)F)c1C(=O)NC1CC1 (stereo not drawn) [compound 214, N-cyclopropyl-2-(difluoromethoxy)-6-methoxy-4-[7-[2-(2-methylmorpholin-4-yl)ethoxy]imidazo[1,2-a]pyridin-3-yl] benzamide] | 10 to 100 | 0.01 to 10 | 0.01 to 10
4 | COc1cc(-c2cnc3cc(OCCN(C)CC#N)ccn23)cc(OC(F)F)c1C(=O)NC1CC1 [compound 215, 4-[7-[2-[cyanomethyl(methyl)amino]ethoxy]imidazo[1,2-a]pyridin-3-yl]-N-cyclopropyl-2-(difluoromethoxy)-6-methoxy-benzamide] | 10 to 100 | 0.01 to 10 | 0.01 to 10
5 | COc1cc(-c2cnc3cc(OCCN4CCOCC4)ccn23)cc(C)c1C(=O)NC1CC1 [compound 222, N-cyclopropyl-2-methoxy-6-methyl-4-[7-(2-morpholinoethoxy)imidazo[1,2-a]pyridin-3-yl]benzamide] | > 500 | 100 to 500 | 10 to 100
6 | COc1cc(-c2cnc3cc(OCc4cccnn4)ccn23)cc(OC(F)F)c1C(=O)NC1CC1 [compound 226, N-cyclopropyl-2-(difluoromethoxy)-6-methoxy-4-[7-(pyridazin-3-ylmethoxy)imidazo[1,2-a]pyridin-3-yl]benzamide] | 10 to 100 | 0.01 to 10 | 0.01 to 10
7 | COc1cc(-c2cnc3cc(OCc4nc(C)no4)ccn23)cc(OC(F)F)c1C(=O)NC1CC1 [compound 229, N-cyclopropyl-2-(difluoromethoxy)-6-methoxy-4-[7-[(3-methyl-1,2,4-oxadiazol-5-yl)methoxy]imidazo[1,2-a]pyridin-3-yl]benzamide] | 10 to 100 | 0.01 to 10 | 0.01 to 10
8 | COc1cc(-c2cnc3cc(OCc4noc(C)n4)ccn23)cc(OC(F)F)c1C(=O)NC1CC1 [compound 231, N-cyclopropyl-2-(difluoromethoxy)-6-methoxy-4-[7-[(5-methyl-1,2,4-oxadiazol-3-yl)methoxy]imidazo[1,2-a]pyridin-3-yl]benzamide] | 10 to 100 | 0.01 to 10 | 0.01 to 10
9 | COc1cc(-c2cnc3cc(OCCN4CCOCC4C)ccn23)cc(OC(F)F)c1C(=O)NC1CC1 (stereo not drawn) [compound 232, N-cyclopropyl-2-(difluoromethoxy)-6-methoxy-4-[7-[2-(3-methylmorpholin-4-yl)ethoxy]imidazo [1,2-a]pyridin-3-yl]benzamide] | 10 to 100 | 0.01 to 10 | 0.01 to 10
10 | COc1cc(-c2cnc3cc(OCCN(C)CC(F)F)ccn23)cc(OC(F)F)c1C(=O)NC1CC1 [compound 236, N-cyclopropyl-4-[7-[2-[2,2-difluoroethyl(methyl)amino]ethoxy]imidazo[1,2-a]pyridin-3-yl]-2-(difluoromethoxy)-6-methoxy-benzamide] | 10 to 100 | 0.01 to 10 | 0.01 to 10
11 | COCCN(CCOc1ccn2c(-c3cc(OC)c(C(=O)NC4CC4)c(OC(F)F)c3)cnc2c1)CC(F)F [compound 237, N-cyclopropyl-4-[7-[2-[2,2-difluoroethyl(2-methoxyethyl)amino]ethoxy]imidazo[1,2-a]pyridin-3-yl]-2-(difluoromethoxy)-6-methoxy-benzamide] | 10 to 100 | 0.01 to 10 | 0.01 to 10

Second part, the molecule after the results:

Row | IC50 [1] [nM] | IC50 [2] [nM] | IC50 [3] [nM] | SMILES
12 | 10 to 100 | 0.01 to 10 | 0.01 to 10 | COc1cc(-c2cnc3cc(OCC4(F)CNC4)ccn23)cc(OC(F)F)c1C(=O)NC1CC1 [compound 207, N-cyclopropyl-2-(difluoromethoxy)-4-[7-[(3-fluoroazetidin-3-yl)methoxy]imidazo[1,2-a]pyridin-3-yl]-6-methoxy-benzamide]
13 | 10 to 100 | 0.01 to 10 | 0.01 to 10 | COc1cc(-c2cnc3cc(OCC4(C)CNC4)ccn23)cc(OC(F)F)c1C(=O)NC1CC1 [compound 208, N-cyclopropyl-2-(difluoromethoxy)-6-methoxy-4-[7-[(3-methylazetidin-3-yl)methoxy]imidazo[1,2-a]pyridin-3-yl]benzamide]
14 | 10 to 100 | 0.01 to 10 | 10 to 100 | COc1cc(-c2cnc3cc(OCCN4CCOCC4)ccn23)cc2cc[nH]c(=O)c12 [compound 210, 8-methoxy-6-[7-(2-morpholinoethoxy)imidazo [1,2-a]pyridin-3-yl]-2H-isoquinolin-1-one]
15 | 0.01 to 10 | 0.01 to 10 | 0.01 to 10 | COc1cc(-c2cnc3cc(OCCN4CCCC(F)(F)C4)ccn23)cc(OC(F)F)c1C(=O)NC1CC1 [compound 211, N-cyclopropyl-2-(difluoromethoxy)-4-[7-[2-(3,3-difluoro-1-piperidyl)ethoxy]imidazo [1,2-a]pyridin-3-yl]-6-methoxy-benzamide]
16 | 0.01 to 10 | 0.01 to 10 | 0.01 to 10 | COc1cc(-c2cnc3cc(OCCN4CCCC(C#N)C4)ccn23)cc(OC(F)F)c1C(=O)NC1CC1 (stereo not drawn) [compound 216, 4-[7-[2-(3-cyano-1-piperidyl)ethoxy]imidazo [1,2-a]pyridin-3-yl]-N-cyclopropyl-2-(difluoromethoxy)-6-methoxy-benzamide]
17 | 0.01 to 10 | 0.01 to 10 | 0.01 to 10 | COc1cc(-c2cnc3cc(OCCN(C)c4ccncc4)ccn23)cc(OC(F)F)c1C(=O)NC1CC1 [compound 223, N-cyclopropyl-2-(difluoromethoxy)-6-methoxy-4-[7-[2-[methyl(4-pyridyl)amino]ethoxy]imidazo[1,2-a]pyridin-3-yl]benzamide]
18 | 0.01 to 10 | 0.01 to 10 | 0.01 to 10 | COc1cc(-c2cnc3cc(OCC4CN(C)C(=O)O4)ccn23)cc(OC(F)F)c1C(=O)NC1CC1 (stereo not drawn) [compound 228, N-cyclopropyl-2-(difluoromethoxy)-6-methoxy-4-[7-[(3-methyl-2-oxo-oxazolidin-5-yl)methoxy]imidazo[1,2-a]pyridin-3-yl]benzamide]
19 | 0.01 to 10 | 0.01 to 10 | 0.01 to 10 | COc1cc(-c2cnc3cc(OCCN(CC(F)F)C4CC4)ccn23)cc(OC(F)F)c1C(=O)NC1CC1 [compound 235, N-cyclopropyl-4-[7-[2-[cyclopropyl (2,2-difluoroethyl)amino]ethoxy]imidazo [1,2-a]pyridin-3-yl]-2-(difluoromethoxy)-6-methoxy-benzamide]
20 | 0.01 to 10 | 0.01 to 10 | 0.01 to 10 | COc1cc(-c2cnc3cc(OCCN(C)c4ncccn4)ccn23)cc(OC(F)F)c1C(=O)NC1CC1 [compound 238, N-cyclopropyl-2-(difluoromethoxy)-6-methoxy-4-[7-[2-[methyl(pyrimidin-2-yl)amino]ethoxy]imidazo [1,2-a]pyridin-3-yl]benzamide]
